{"source": "patent US10238714B2", "about": "“Method for forming an immune-tolerant site and method for attracting immunosuppressive cells” (KYOTO UNIVERSITY, priority 2015, dated 2019)", "key": {"TGF-β1": {"system": "TGF-β1", "test": "TGF-β1 concentration in the exudate at the site of the SEK-1005-containing agarose rod", "assay_type": "in vivo, ACI rats", "protocol": "(§1) In a polystyrene tube with an inner diameter of 4 mm, 4.5% agarose solution was poured, and the tube was then left to stand at normal temperature to allow gelation of the agarose solution. The resulting agarose gel rod was removed from the polystyrene tube, and cut into a piece having a length of 25 mm. Subsequently, the agarose gel rod was stored in a freezer at −30° C. overnight to allow freezing of water. By freeze-drying the frozen agarose rod, a porous dry agarose rod was prepared. To the dry agarose rod, 50 μl of a solution of 2 mg/ml SEK-1005 in ethanol was added dropwise to include the SEK-1005 solution in the dry agarose rod. Ethanol was then evaporated by air drying.\n(§2) On the day when the agarose rod was to be embedded, streptozotocin (STZ) (60 mg/kg body weight) was administered to ACI rats to induce diabetes. To each of the left side and the right side of the back of each ACI rat, the agarose rod having a length of 25 mm and a diameter of 4 mm containing 100 μg of SEK-1005 was embedded. On Day 10 after the embedding, the agarose rod was removed. In the vicinity of each place where the agarose rod had been embedded, formation of connective tissue containing a number of blood vessels was found. This tissue was minced with scissors, and then homogenized, followed by collecting cells from the tissue. The cells were subjected to purification by Percoll density gradient centrifugation to obtain immune cells, and the obtained immune cells were analyzed using a flow cytometer.\nThe TGF-β1 concentration in the exudate was measured. The TGF-β1 concentration was 0.7±0.1 ng/ml until Day 7 after the SEK-1005-containing agarose rod was embedded. […] This was about 3 times the concentration in a treated group in which an SEK-1005-free agarose rod was embedded."}, "[1]": {"system": "cytotoxic T cells (CD8+ T cells)", "test": "Flow cytometry of immune cells from tissue where SEK-1005-containing agarose rod was embedded under the skin: cytotoxic T cells", "assay_type": "in vivo, ACI rats", "protocol": "as §1\nas §2, with “On Day 10 after the embedding, the agarose rod was removed.” left out\nIn normal subcutaneous tissues, the ratio is about 30%, and, when a foreign substance is embedded, the ratio increases to not less than 50% in most cases. The action of SEK-1005 suppressed such an increase."}, "[2]": {"system": "regulatory T cells (CD4+Foxp3+ cells)", "test": "Flow cytometry of immune cells from tissue where SEK-1005-containing agarose rod was embedded under the skin: regulatory T cells", "assay_type": "in vivo, ACI rats", "conditions": "for ratio of Foxp3+ cells among CD4+ cells: STZ-diabetic ACI rats", "protocol": "as §1, §2\nThe ratio of Foxp3^+ cells among CD4^+ cells was 18.3% on Day 2, 20.8% on Day 7, 23.3% on Day 10, and 27.3% on Day 14 after the SEK-1005-containing agarose rod was embedded under the skin."}, "CD8+ T cells": {"system": "CD8+ T cells", "test": "Treg suppression assay with CD4+CD25+ cells collected from tissue near the SEK-1005-containing agarose rod", "assay_type": "cell-based, ACI rats", "conditions": "Group 2: CFSE-stained CD8+ T cells, 1 μg/mL anti-CD3 antibody plus 2.5×10^4 CD4+CD25+ cells from Day 10 rod tissue, Day 4.5; Group 1 without these cells 42.4%", "from_the_text": "On Day 10 after embedding of the SEK-1005-containing agarose rod by the same operation as in Example 1, the tissue in the vicinity of the place where the rod was embedded was collected, and then homogenized, followed by collecting cells from the tissue. The cells were subjected to purification by Percoll density gradient centrifugation to obtain immune cells, and CD4^+CD25^+ cells (a fraction containing a large number of tissue-infiltrating regulatory T cells) were collected using MACS magnetic beads.\nCD8^+ T cells were separately prepared from ACI rats, and the cells were then stained with a fluorescent dye, carboxyfluorescein succinimidyl ester (CFSE). On a 96-well plate, 2.5×10^4 CD8^+ T cells and 5×10^4 antigen-presenting cells were plated in each well, and the cell growth was quantitatively evaluated using a flow cytometer on Day 4.5 after the plating. The wells were divided into three groups. In Group 1, 1 μg/mL anti-CD3 antibody was added to stimulate the growth. In Group 2, 1 μg/mL anti-CD3 antibody as well as 2.5×10^4 CD4^+CD25^+ cells were added. In Group 3, no anti-CD3 antibody was added.\nOne round of cell division of T cells stained with a fluorescent dye results in a decrease in the fluorescence intensity to half. Another division results in a decrease in the fluorescent intensity to one fourth of the original intensity. […]"}, "[3]": {"system": "chemokine/cytokine-associated genes", "test": "Gene expression analysis of tissue in vicinity of embedded SEK-1005-containing agarose rod", "assay_type": "in vivo, rat", "conditions": "Day 7 after embedding, versus SEK-1005-free agarose rod group", "from_the_text": "(§3) On Day 7 after embedding of the SEK-1005-containing agarose rod by the same operation as in Example 1, the tissue in the vicinity of the place where the rod was embedded was collected. The collected tissue was immediately impregnated with RNA later solution (Life Technologies) to inhibit RNA degradation. RNA in the tissue was extracted by the column method. The extracted RNA was amplified by the Express kit method (Affymetrix) and biotin-labeled, followed by hybridization with a Rat Genome 230 2.0 array (Affymetrix). Signals were read by a Hewlett-Packard GeneArray Scanner G2500A. By such a process, gene expression analysis was carried out for three tissue samples obtained from the vicinities of SEK-1005-containing agarose rods and three tissue samples obtained from the vicinities of control SEK-1005-free agarose rods. The obtained fluorescence intensities were standardized and normalized, and then subjected to statistical analysis. The standardized and normalized gene expression level was statistically compared between the SEK-1005-containing agarose rod group and the control SEK-1005-free agarose rod group. Genes showing increased expression in the SEK-1005-containing agarose rod group were plotted such that their values along the X-axis became positive. Log 2 conversion was carried out in terms of the X-axis. […]"}, "[4]": {"test": "Blood glucose level after transplantation of pancreatic islets into the site where the SEK-1005-containing agarose rod was embedded", "assay_type": "in vivo", "conditions": "then removed, 1,500 F344 rat islets per cavity, STZ-diabetic ACI rats", "protocol": "On the day when the SEK-1005-containing agarose rod was to be embedded, streptozotocin (STZ) (60 mg/kg body weight) was administered to ACI rats to induce diabetes. Under the skin of each of the left side and the right side of the back of each ACI rat, the agarose rod prepared in the same way as Example 1 was embedded. On Day 2 or Day 10 after the embedding, the agarose rod was removed, and 1,500 pieces of pancreatic islets separated from the pancreases of F344 rats were transplanted to each of the two dorsal subcutaneous cavities formed. After the transplantation, the blood glucose levels of the rats were measured. […] When SEK-1005-free agarose rod was embedded in the STZ-administered rats for 10 days and after removal of the agarose-rod, pancreatic islets were transplanted to the embedded site, the blood glucose levels of the diabetic rats were not decreased."}, "[5]": {"system": "chemokine/cytokine-associated genes", "test": "Gene expression analysis of tissue in vicinity of embedded bFGF-containing agarose rod", "assay_type": "in vivo, rat", "conditions": "Day 7 after embedding, versus bFGF-free agarose rod group", "from_the_text": "as §3, with “bFGF-containing” for “SEK-1005-containing”, “4,” for “1,”, “bFGF-free” for “SEK-1005-free”"}, "[6]": {"system": "regulatory T cells (CD4+Foxp3+ cells)", "test": "Flow cytometry of immune cells at site where bFGF-containing agarose rod was embedded: regulatory T cells", "assay_type": "in vivo, ACI rats", "conditions": "for ratio of Foxp3+ cells among CD4+ cells: STZ-diabetic ACI rats", "protocol": "as §1, with “mm, 4.5” for “mm, 4.5%”, “rod, 100” for “rod, 50”, “of 500 μg/ml bFGF” for “of a”, “solution (FIBLAST Spray 500, Kaken Pharmaceutical Co., Ltd.)” for “solution of 2 mg/ml SEK-1005 in ethanol”, “the bFGF” for “the SEK-1005”, “rod.” for “rod. Ethanol was then evaporated by air drying.”\n(§4) On the day when the agarose rod was to be embedded, streptozotocin (STZ) (60 mg/kg body weight) was administered to ACI rats to induce diabetes. To each of the left side and the right side of the back of each ACI rat, the agarose rod having a length of 25 mm and a diameter of 4 mm containing 50 μg of bFGF was embedded. On Day 7 after the embedding, the agarose rod was pulled out. In the vicinity of each place where the agarose rod had been embedded, formation of connective tissue containing a number of blood vessels was found. This tissue was collected, and then minced with scissors, followed by homogenization. The cells were then subjected to purification by Percoll density gradient centrifugation to obtain immune cells, and the obtained immune cells were analyzed using a flow cytometer.\nThe ratio of Foxp3^+ cells among CD4^+ cells was 25.4% on Day 2, 24.4% on Day 7, 24.4% on Day 10, and 26.4% on Day 14 after the bFGF-containing agarose rod was embedded under the skin."}, "[7]": {"system": "myeloid-derived suppressor cells (MDSCs)", "test": "Flow cytometry for CD11b/c and granulocytes at site where bFGF-containing agarose rod was embedded", "assay_type": "in vivo, ACI rats", "conditions": "group in which the agarose rod-bFGF was embedded", "protocol": "as §1, with “mm, 4.5” for “mm, 4.5%”, “rod, 100” for “rod, 50”, “of 500 μg/ml bFGF” for “of a”, “solution (FIBLAST Spray 500, Kaken Pharmaceutical Co., Ltd.)” for “solution of 2 mg/ml SEK-1005 in ethanol”, “the bFGF” for “the SEK-1005”, “rod.” for “rod. Ethanol was then evaporated by air drying.”\nas §4, with “This tissue was collected, and then minced with scissors, followed by homogenization.” left out, “cytometer. […]” for “cytometer.”"}}, "data": [{"compound": "CC(C)CC1CCC(O)(C(C)(O)C(=O)NC2C(=O)N3NCCCC3C(=O)N(O)C(C)C(=O)N(C)C(Cc3ccccc3)C(=O)N3NCCCC3C(=O)NC(CO)C(=O)OC2C(C)C)OC1C", "note": "(stereo not drawn) [SEK-1005, Ser, 3-hydroxy-N-[2-hydroxy-1-oxo-2-tetrahydro-2-hydroxy-6-methyl-5-(2-methylpropyl)-2H-pyran-2-yl-propyl]-Leu-Pip(hexahydro-3-pyridazinecarbonyl)-N-hydroxy-Ala-N-methyl-Phe-Pip-rho-lactone]", "values": [{"measurement": "TGF-β1 concentration in the exudate", "setting": "TGF-β1; Day 10 after the embedding", "value": "2.0 ± 1.0", "unit": "ng/mL"}, {"measurement": "TGF-β1 concentration relative to SEK-1005-free agarose rod group", "setting": "TGF-β1; Day 10 after the embedding", "value": "about 3 times"}, {"measurement": "TGF-β1 concentration in the exudate", "setting": "TGF-β1; until Day 7 after the rod was embedded", "value": "0.7 ± 0.1", "unit": "ng/mL"}, {"measurement": "ratio of cytotoxic T cells (CD8+ T cells) to CD4+ cells among CD3+ cells", "setting": "[1]; Day 2 after SEK-1005-containing agarose rod embedded under the skin", "value": 36.1, "unit": "%"}, {"measurement": "ratio of cytotoxic T cells (CD8+ T cells) to CD4+ cells among CD3+ cells", "setting": "[1]; Day 7 after SEK-1005-containing agarose rod embedded under the skin", "value": 33.7, "unit": "%"}, {"measurement": "ratio of cytotoxic T cells (CD8+ T cells) to CD4+ cells among CD3+ cells", "setting": "[1]; Day 10 after SEK-1005-containing agarose rod embedded under the skin", "value": 25.5, "unit": "%"}, {"measurement": "ratio of cytotoxic T cells (CD8+ T cells) to CD4+ cells among CD3+ cells", "setting": "[1]; Day 14 after SEK-1005-containing agarose rod embedded under the skin", "value": 23.9, "unit": "%"}, {"measurement": "ratio of Foxp3+ cells among CD4+ cells", "setting": "[2]; Day 2 after rod with 100 μg SEK-1005 embedded under the skin", "value": 18.3, "unit": "%"}, {"measurement": "ratio of Foxp3+ cells among CD4+ cells", "setting": "[2]; Day 7 after rod with 100 μg SEK-1005 embedded under the skin", "value": 20.8, "unit": "%"}, {"measurement": "ratio of Foxp3+ cells among CD4+ cells", "setting": "[2]; Day 10 after rod with 100 μg SEK-1005 embedded under the skin", "value": 23.3, "unit": "%"}, {"measurement": "ratio of Foxp3+ cells among CD4+ cells", "setting": "[2]; Day 14 after rod with 100 μg SEK-1005 embedded under the skin", "value": 27.3, "unit": "%"}, {"measurement": "increase of ratio of regulatory T cells (CD4+Foxp3+ cells)", "setting": "[2]; versus about 10% in normal subcutaneous tissues", "value": "2- to 3 fold"}, {"measurement": "ratio of cells exhibiting decreased fluorescence intensity due to cell division", "setting": "CD8+ T cells", "value": 13.4, "unit": "%"}, {"measurement": "expression of genes associated with migration/induction of regulatory T cells among chemokine/cytokine-associated genes", "setting": "[3]", "value": "significant increase"}, {"measurement": "expression of genes not associated with migration/induction of regulatory T cells among chemokine/cytokine-associated genes", "setting": "[3]", "value": "significant decrease"}, {"measurement": "blood glucose levels after transplantation of pancreatic islets", "setting": "[4]; rod embedded for ten days", "value": "normalized"}, {"measurement": "blood glucose levels after transplantation of pancreatic islets", "setting": "[4]; rod embedded for two days", "value": "> 400", "unit": "mg/dL"}]}, {"compound": "bFGF: basic fibroblast growth factor; bFGF solution (FIBLAST Spray 500, Kaken Pharmaceutical Co., Ltd.)", "values": [{"measurement": "expression of genes associated with migration/induction of regulatory T cells among chemokine/cytokine-associated genes", "setting": "[5]", "value": "significant increase"}, {"measurement": "expression of genes not associated with migration/induction of regulatory T cells among chemokine/cytokine-associated genes", "setting": "[5]", "value": "significant decrease"}, {"measurement": "ratio of Foxp3+ cells among CD4+ cells", "setting": "[6]; Day 2 after rod with 50 μg bFGF embedded under the skin", "value": 25.4, "unit": "%"}, {"measurement": "ratio of Foxp3+ cells among CD4+ cells", "setting": "[6]; Day 7 after rod with 50 μg bFGF embedded under the skin", "value": 24.4, "unit": "%"}, {"measurement": "ratio of Foxp3+ cells among CD4+ cells", "setting": "[6]; Day 10 after rod with 50 μg bFGF embedded under the skin", "value": 24.4, "unit": "%"}, {"measurement": "ratio of Foxp3+ cells among CD4+ cells", "setting": "[6]; Day 14 after rod with 50 μg bFGF embedded under the skin", "value": 26.4, "unit": "%"}, {"measurement": "increase of ratio of regulatory T cells", "setting": "[6]; versus about 10% in normal subcutaneous tissues and bFGF-free agarose rod-embedded rats", "value": "2- to 3 fold"}, {"measurement": "granulocyte marker", "setting": "[7]", "value": "increase"}, {"measurement": "myeloid-derived suppressor cells (MDSCs)", "setting": "[7]", "value": "induced"}]}]}
